Measured values taken from publication PMC6523531, “Mechanistic Studies on the Absorption-Enhancing Effects of Gemini Surfactant on the Intestinal Absorption of Poorly Absorbed Hydrophilic Drugs in Rats” (Pharmaceutics, 2019).

Columns and labels:
Caco-2 cells = assay: Caco-2 cell damage by LDH release; type: cell-based, Human; settings: after the transport studies, n = 6
Experimental: After the transport studies were over, the solution on the apical side of each well was collected. Cell injury caused by SLG-30 was determined by tracking the LDH release. The cell precipitate and the monolayers left on the filters were solubilized with 1% (v/v) Triton X-100. The solutions from apical sides and the lysates were centrifuged for 7 min at 200× g at a temperature of 4 °C. The activities of LDH in the supernatant were measured. (LDHrelease) stands for the activity of the LDH released into the apical side in the existence of SLG-30. (LDHcell) stands for the activity of the LDH obtained from the cell lysate. LDHreleased% was calculated by the following equation:LDHrelease% = LDHrelease × 100/(LDHrelease + LDHcells)

Caco-2 cell monolayers [1] = assay: Transport of CF across Caco-2 cell monolayers; type: in vitro ADME, Human; settings: 10 µM CF
Experimental: Caco-2 cells (passage 45) were cultured in 175-cm^2 culture flask (Thermo Fisher Scientific™, Waltham, MA, USA). The culture medium consisted of DMEM containing 10% FBS, 0.1 mM MEM–NEAA, 2 mM glutamine, 100 U/mL penicillin, and 100 µg/mL streptomycin [30]. Cells were cultured in a humidified atmosphere of 5% CO2 at 37 °C. The culture medium was changed every two days. When the cultured Caco-2 cells became sub-confluent, they were seeded onto 12-mm Transwell® with 0.4-µm pore polycarbonate membrane inserts (Corning Inc., New York, NY, USA) at a density of 1 × 10^5 cells/insert. The transepithelial transport studies were performed when the transepithelial electrical resistance (TEER) values were more than 500 Ω·cm^2 (i.e., after 21 days). Briefly, after removing the incubation medium by aspiration, the apical and basal sides were washed thrice by Hank’s Balanced Salt (HBSS) solution (pH 7.4). The cells were incubated in HBSS (pH 6.0) for the apical side and HBSS (pH 7.4) for the basal side for 20 min at 37 °C. HBSS supplemented with 1 mg/mL glucose was used in all cell culture experiments. […]
The TEER values were measured by Millicell® (ERS-2 Volt-Ohm Meter, Billerica, MA, USA) at the predetermined times up to 24 h, and the initial values were considered as 100%. […] CF was determined as previously mentioned. The apparent permeability coefficients Papp (cm/s) for the transported CF was determined by the following equation: Papp=dXR/dt×1/A×1/C0 where Papp is the apparent permeability coefficient in centimeters per second, XR is the amount of CF in moles in the receptor side, dXR/dt is the flux across the monolayer, A is the diffusion area (i.e., in square centimeters), and C0 is the initial concentration of CF in the donor side in moles per milliliter.

Caco-2 cell monolayers [2] = assay: Transepithelial electrical resistance (TEER) of Caco-2 cell monolayers; type: cell-based, Human
Experimental: Caco-2 cells (passage 45) were cultured in 175-cm^2 culture flask (Thermo Fisher Scientific™, Waltham, MA, USA). The culture medium consisted of DMEM containing 10% FBS, 0.1 mM MEM–NEAA, 2 mM glutamine, 100 U/mL penicillin, and 100 µg/mL streptomycin [30]. Cells were cultured in a humidified atmosphere of 5% CO2 at 37 °C. The culture medium was changed every two days. When the cultured Caco-2 cells became sub-confluent, they were seeded onto 12-mm Transwell® with 0.4-µm pore polycarbonate membrane inserts (Corning Inc., New York, NY, USA) at a density of 1 × 10^5 cells/insert. The transepithelial transport studies were performed when the transepithelial electrical resistance (TEER) values were more than 500 Ω·cm^2 (i.e., after 21 days). Briefly, after removing the incubation medium by aspiration, the apical and basal sides were washed thrice by Hank’s Balanced Salt (HBSS) solution (pH 7.4). The cells were incubated in HBSS (pH 6.0) for the apical side and HBSS (pH 7.4) for the basal side for 20 min at 37 °C. HBSS supplemented with 1 mg/mL glucose was used in all cell culture experiments. After removing the washing solution by aspiration, 500 µL of 10 µM CF in a HBSS (pH 6.0) solution with or without various concentrations (0.001% v/v, 0.01% v/v, 0.025% v/v, 0.05% v/v, and 0.1% v/v) of SLG-30, 0.1% (w/v) and 1% (w/v) NaGC or 0.05% (w/v) sodium laurate were added to the apical side at zero time, whereas precisely 1500 µL of HBSS (pH 7.4) was added to the basal side at 37 °C. The cells were kept at 37 °C and 5% CO2 and were continuously agitated on a shaker during the transport experiments.
The TEER values were measured by Millicell® (ERS-2 Volt-Ohm Meter, Billerica, MA, USA) at the predetermined times up to 24 h, and the initial values were considered as 100%. The samples from the basal side were withdrawn at predetermined time points up to 24 h. The samples were replaced with an equal volume of HBSS (pH 7.4). CF was determined as previously mentioned. The apparent permeability coefficients Papp (cm/s) for the transported CF was determined by the following equation: Papp=dXR/dt×1/A×1/C0 where Papp is the apparent permeability coefficient in centimeters per second, XR is the amount of CF in moles in the receptor side, dXR/dt is the flux across the monolayer, A is the diffusion area (i.e., in square centimeters), and C0 is the initial concentration of CF in the donor side in moles per milliliter.

rat small intestines = assay: In situ closed-loop enteric absorption of CF with absorption enhancers; type: in vivo; settings: for Enhancement Ratio (AUC with enhancer/AUC control without enhancer): CF 0.5 mg/kg, rat small intestine
Experimental: The enteric absorption of CF was examined by an in situ closed-loop method, as reported previously. The experiments were carried out in accordance with the guidelines of the Animal Ethics Committee at Kyoto Pharmaceutical University. The protocols were approved by this Committee (permit number: 16-12-069, permit date: 14 April 2016). The rats were starved overnight for approx. 16 h pre-dosing, but water was freely available. After inducing anesthesia with sodium pentobarbital which was administered intraperitoneally at a dose of 32 mg/kg body weight, the rats were placed under a heat lamp to maintain a body temperature at around 37 °C, and the intestines were exposed using a midline-abdominal incision. After the bile duct was ligated, the intestines were washed with phosphate buffered saline (PBS, pH 7.4), and the remaining buffer solution was expelled with air. Enteric cannulation was performed at both ends using polyethylene tubing, and the distal parts of the small intestines were clipped by forceps. The dosing solutions (3 mL) with or without absorption enhancers kept at 37 °C, were directly introduced into the lumen of the enteric loop through a cannulated opening in the proximal part of the small enteric loop, which was then closed by clipping with another forceps. The jugular vein was exposed, and approx. 0.3 mL of blood was collected via a direct puncture into heparinized syringes at predetermined time intervals up to 240 min. The samples were immediately centrifuged at 12,000 rpm (15,000× g) for a period of 5 min to obtain the plasma fraction, which was stored on ice for further analysis. CF fluorescence signals in these plasma samples were detected after the treatment with the same volume of acetonitrile using a fluorescence spectrophotometer, Powerscan1 HT supplied by BioTek Instruments (Winooski, VT, USA) at an excitation wavelength of 485 nm and an emission wavelength of 535 nm. There was no significant background fluorescence in the plasma when the fluorescence intensities of CF were determined in this study. The peak drug concentrations (Cmax) and the time to reach the peak drug concentrations (Tmax) in the plasma were directly determined from the plasma concentration–time profiles. The area under the curve (AUC) was calculated by the trapezoidal method from pre-dose (time zero) till the administration of the final sample. The absorption enhancement ratios of CF, with or without absorption enhancers, were calculated as follows: Absorption enhancement ratio = AUCwith enhancer/AUCcontrol without enhancer

[3] = system: brush-border membrane vesicles (BBMVs); assay: Membrane fluidity of BBMVs by fluorescence polarization (fluorescence anisotropy); settings: rat BBMVs, 37 °C, SLG-30 0.1-1.0% v/v, vs control, n = 4
Experimental: To prepare BBMVs, we followed the methods as reported previously with a slight modification. Briefly, an in situ small intestinal loop was prepared in each rat, as mentioned above, and then, PBS (pH 7.4) was administered into the loop. The fat was trimmed off from the small intestine and mesentery. Then, the whole small intestine was soaked in ice-cold PBS (pH 7.4). The small intestine was divided into 10 cm segments. Mucosa was scraped out with a slide glass from each of these segments and used for subsequent studies. BBMVs were prepared by the divalent cation precipitation method using MgCl2 in the presence of ethylenebis (oxyethylenenitrilo) tetraacetic acid (EGTA). Briefly, the collected mucosa was homogenized in a buffer containing mannitol (300 mM), EGTA (5 mM), and Tris (pH 7.4) (12 mM) by using a tissue homogenizer. An aqueous solution of 10 mM magnesium chloride was added to the homogenate. The homogenate was centrifuged at 3000× g for 15 min. The supernatant was then centrifuged at 32,000× g for 30 min. The pellet was resuspended in a buffer containing mannitol (300 mM), EGTA (5 mM), and Tris (pH 7.4) (12 mM) by using a 26-G needle. The protein concentration was determined by the BCA method using bovine serum albumin as a standard, and the final concentration was adjusted to 1 mg/ml in each Eppendorf tube. The samples were frozen by liquid nitrogen and kept at −80 °C for further studies.
The BBMVs (100 μg protein) were incubated with 1 μM DPH, with 0.5 μM tma-DPH or with 5 μM DNS-Cl in HEPES-Tris buffer (25 mM HEPES, 5.4 mM KCl, 1.8 mM CaCl2, 0.8 mM MgSO4, 140 mM NaCl, 5 mM glucose, pH 7.4 adjusted by 1 M Tris) in the dark at 37 °C for 30 min [25, 28]. Then, various concentrations (0.1% v/v, 0.25% v/v, 0.5% v/v, and 1.0% v/v) of SLG-30 were added. Then, the samples were incubated in the dark for 1 min at 37 °C. For the control group, the same procedure was carried out by adding the HEPES-Tris buffer only. The fluorescence intensities and the steady-state polarization of fluorescence expressed as the fluorescence anisotropy, r, of the labeled membrane vesicles were measured at 37 °C. The excitation and emission wavelengths were λex = 360 nm, and λem = 430 nm for DPH and tma-DPH and λex = 380 nm and λem = 480 nm for DNS-Cl. The measurements were carried out by using a Hitachi Spectrofluorometer (F-2000 Spectrofluorometer, Hitachi Seisakusho Corp, Yokohama, Japan) equipped with a polarizer set.
The fluorescence anisotropy (r) was calculated using the following equation: r=IV−IH/IV+2IH where IV and IH respectively represent the […] fluorescence intensities to the polarized excitation plane.

[4] = in situ closed loop, 0.5% (v/v) SLG-30, 0.5% (w/v) sodium laurate, 1% (w/v) sodium glycocholate

| Structure (SMILES) | activity of LDH released from Caco-2 cells vs control (Caco-2 cells; 0.05% (w/v) sodium laurate) | increase of the transport of CF vs control (Caco-2 cell monolayers [1]; 0.05% (w/v) sodium laurate) [times] | TEER values (Caco-2 cell monolayers [2]; 0.05% (w/v) sodium laurate, without recovering to the baseline) | Enhancement Ratio (AUC with enhancer/AUC control without enhancer) (rat small intestines; [4]) | Tmax of CF (rat small intestines; plasma CF (0.5 mg/kg) given with enhancer into rat small intestine, in situ closed loop, 0.5% (v/v) SLG-30, 0.5% (w/v) sodium laurate, 1% (w/v) sodium glycocholate, mean ± S.E., n = 3) | fluorescence anisotropy of tma-DPH (outer lipid bilayers) ([3]; 0.5 μM tma-DPH) | fluorescence anisotropy of DPH (inner lipid bilayers) ([3]; 1 μM DPH) | fluorescence anisotropy of DNS-Cl (protein portion) ([3]; 5 μM DNS-Cl, p < 0.01) | release of LDH from Caco-2 cells vs control (Caco-2 cells; 0.1% (w/v) and 1% (w/v) NaGC) | effect on the transport of CF (Caco-2 cell monolayers [1]; 0.1% (w/v) NaGC) | increase of the transport of CF vs control (Caco-2 cell monolayers [1]; 1% (w/v) NaGC) [times] | TEER values (Caco-2 cell monolayers [2]; 0.1% (w/v) NaGC) | TEER values (Caco-2 cell monolayers [2]; 1% (w/v) NaGC) | AUC0→240 of CF higher than that of the control group (rat small intestines; rat in situ closed loop, 0.5% (v/v) SLG-30 or 1% (w/v) NaGC) [times] |
| --- | --- | --- | --- | --- | --- | --- | --- | --- | --- | --- | --- | --- | --- | --- |
| CCCCCCCCCCCC(=O)[O-].[Na+] [Sodium laurate, sodium laurate] | significantly increased | 94 | significantly reduced | 2.7 | approximately 15 min |  |  |  |  |  |  |  |  |  |
| CC(C)CCC[C@@H](C)[C@H]1CC[C@H]2[C@@H]3CC=C4C[C@@H](O)CC[C@]4(C)[C@H]3CC[C@]12C [cholesterol] |  |  |  |  |  | increased the fluorescence anisotropy | increased the fluorescence anisotropy | increased the fluorescence anisotropy |  |  |  |  |  |  |
| C[C@H](CCC(=O)NCC(=O)[O-])[C@H]1CC[C@H]2[C@@H]3[C@H](O)C[C@@H]4C[C@H](O)CC[C@]4(C)[C@H]3C[C@H](O)[C@]12C.[Na+] [Sodium glycocholate, sodium glycocholate] |  |  |  | 4.5 |  |  |  |  | Neither 0.1% (w/v) nor 1% (w/v) of NaGC increased the release of LDH | insignificant effect | 5 | Almost no effect | significantly decreased then recovered to the baseline | 4.5 |
